Patent publication US12303530B2, “Combination therapy of cycloserine and lithium for the treatment of depression” (NEURORIVE INC, priority 2019, dated 2025)

System: mice (C57BL6)
Test: forced swimming test (FST)
Format: in vivo, mouse
Details: FST in an hour after administration, immobility time measured for the last 4 minutes of 6 minutes
Description: In order to test an effect of reducing depression depending on administration of the pharmaceutical composition of the present invention, mice were subjected to a forced swimming test (FST). The FST, which is to measure a coping strategy for acute stress that inevitably occurs, is an animal behavioral experiment commonly used to measure antidepressant effects. To confirm the effect of reducing depression by combined administration of D-cycloserine (DCS) and lithium, 10 ml/kg of the preparation was administered to all groups of mice (C57BL6). […] After 1 hour, the forced swimming test (FST) that measures depression-like behavior was performed on the mice. Specifically, each group of mice was individually placed in a 3 L Pyrex beaker (13 cm in diameter, 24 cm in height), and the beakers were filled with 27.5±1.5° C. of water up to a depth of 9 cm. All mice were forced to swim for 6 minutes, and immobility time was measured for the last 4 minutes of the experiment. The immobility time is defined as the […] time taken while the mouse is floating without struggling or taking only the movement required for keeping the mouse's head above the water surface.

Row | SMILES | immobility in forced swimming test, compared to the control group administered with the vehicle
1 | N[C@@H]1CONC1=O [DCS, D-cycloserine] | did not show statistical significance
2 | O=C([O-])[O-].[Li+].[Li+] [Li2CO3, Lithium carbonate] | did not show statistical significance
